Common to all, as to assay type: cell-based
Test [1] deals with T1, RAMP2-CLR (AM1 receptor) (Homo sapiens, UniProt O60895+Q16602).
T1 construct: FLAG; expressed in transfected cells; host or cells: HEK-293 or HEK-293S cells, transient transfection, 1:1 RAMP:CLR
The test can be described thus: (Ca^2+)i mobilization, HEK-293 cells, RAMP2 + CLR. The conditions noted are these: HEK293, percentage of maximal (Ca^2+)i release with 10 μM ionomycin, mean ± S.E., n = 5. Here is the method:
(§1) HEK-293 cells were transfected with FuGENE 6 (Roche Applied Science) in accordance with the manufacturer's instructions using a 1:3 (w:v) DNA:FuGENE ratio and a 1:1 ratio of RAMP to CLR. […] The transfected cell lines were grown for 24–48 h prior to assaying.
(§2) Transfected HEK-293 cells were grown to confluence in black, clear bottomed, 96-well plates. […] Cells were then washed followed by the addition of 100 μl of Ca^2+-free Hanks' balanced salt solution. […] Recordings were obtained every 0.5 s for 120 s. Peak magnitude was calculated using five-point smoothing followed by correction against background fluorescence. The peak was used to generate concentration-response curves and normalized relative to 10 μM ionomycin.
(§3) Data analysis for cAMP assays was performed in GraphPad Prism 6.0f (San Diego, CA). […] These values were then used to quantify signaling bias as change in log (τ/Ka) relative to the natural cognate ligand for the respective receptor ([41]). […] Statistical differences were analyzed using one-way ANOVA or Student's t test as appropriate with post hoc Bonferroni's or Dunnett's multiple comparisons, and p < 0.05 was considered significant. […] To quantitate the ligand-dependent response in the yeast system, a strain lacking GPA1 (MMY11), grown in rich medium, was used as a standard ([72]). […]

Test [2] addresses T1, RAMP2-CLR (AM1 receptor). The test can be described thus: (Ca^2+)i mobilization, HEK-293S cells, RAMP2 + CLR. To be noted: HEK293S, percentage of maximal (Ca^2+)i release with 10 μM ionomycin, mean ± S.E., n = 5. Here is the method: as §1, §2, §3
Test [3] has as its target T2, RAMP1-CLR (CGRP receptor) (Homo sapiens, UniProt O60894+Q16602).
T2 construct: FLAG; expressed in transfected cells; host or cells: HEK-293 or HEK-293S cells, transient transfection, 1:1 RAMP:CLR
The test can be described thus: cAMP accumulation, HEK-293 cells, RAMP1 + CLR. To be noted: mean ± S.E. Here is the method: as §1
The transfected HEK-293 cells were washed in PBS, resuspended in stimulation buffer (PBS containing 0.1% BSA and 0.5 mM IBMX), and seeded at 2000 cells/well in 384-well white Optiplates. Ligands were added in the range of 1 pM to 1 mM, and cAMP accumulation was measured after 30 min of stimulation using a LANCE® cAMP detection kit (PerkinElmer Life Sciences). […] Plates were read using a Mithras LB 940 multimode microplate reader (Berthold Technologies). […] Values were converted to concentration using a cAMP standard curve performed in parallel.
Data analysis for cAMP assays was performed in GraphPad Prism 6.0f (San Diego, CA). Data were fitted to obtain concentration-response curves using either the three-parameter logistic equation (for pEC50 values) or the operational model for partial agonism ([34]) to obtain values of efficacy (log τ) and the equilibrium dissociation constant (log Ka). These values were then used to quantify signaling bias as change in log (τ/Ka) relative to the natural cognate ligand for the respective receptor ([41]). […] Statistical differences were analyzed using one-way ANOVA or Student's t test as appropriate with post hoc Bonferroni's or Dunnett's multiple comparisons, and p < 0.05 was considered significant. […] For RT-PCR, normalization to the internal standard GAPDH was performed to reduce variance and enable a comparison between different cell lines. To quantitate the ligand-dependent response in the yeast system, a strain lacking GPA1 (MMY11), grown in rich medium, was used as a standard ([72]). As GPA1 is not present in this strain, the Gβγ subunits are unregulated and free to signal, allowing us to determine the maximal response of our system. […] For the mammalian cell-based assays, data analysis was carried out as for the yeast curves. […]
A general note: Changes in cAMP serve as a functional read-out for many G protein-coupled receptors.

Test [4] has as its target T2, RAMP1-CLR (CGRP receptor). The test can be described thus: (Ca^2+)i mobilization, HEK-293 cells, RAMP1 + CLR. The conditions noted are these: HEK293, percentage of maximal (Ca^2+)i release with 10 μM ionomycin, mean ± S.E., n = 5. Here is the method: as §1, §2, §3

As a reminder, the Emax is the maximal effect, on the per cent scale that the assay sets.

T2 sequence (Q16602 23-461): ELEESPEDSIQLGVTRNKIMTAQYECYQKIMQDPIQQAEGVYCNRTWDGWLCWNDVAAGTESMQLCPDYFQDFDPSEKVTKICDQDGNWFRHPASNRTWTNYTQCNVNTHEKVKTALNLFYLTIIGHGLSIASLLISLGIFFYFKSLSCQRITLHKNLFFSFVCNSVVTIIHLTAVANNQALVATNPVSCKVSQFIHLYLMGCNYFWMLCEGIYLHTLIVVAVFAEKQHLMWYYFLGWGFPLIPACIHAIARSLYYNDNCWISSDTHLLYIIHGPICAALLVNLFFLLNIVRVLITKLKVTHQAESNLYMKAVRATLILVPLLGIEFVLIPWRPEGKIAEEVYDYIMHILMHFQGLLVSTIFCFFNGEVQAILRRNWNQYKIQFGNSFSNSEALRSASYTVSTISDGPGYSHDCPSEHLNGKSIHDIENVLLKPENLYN
T2 sequence (O60894 27-148): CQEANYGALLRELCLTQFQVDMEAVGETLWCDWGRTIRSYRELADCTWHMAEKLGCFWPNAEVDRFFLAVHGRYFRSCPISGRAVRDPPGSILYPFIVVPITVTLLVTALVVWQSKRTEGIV
T1 sequence (Q16602 23-461): as the sequence (Q16602 23-461) above
T1 sequence (O60895 43-175): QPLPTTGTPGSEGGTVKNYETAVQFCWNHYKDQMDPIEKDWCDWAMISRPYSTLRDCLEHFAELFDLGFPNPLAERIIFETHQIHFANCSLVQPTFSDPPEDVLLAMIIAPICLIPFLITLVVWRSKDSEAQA

`CSCC[C@H](NC(=O)[C@H](CC(C)C)NC(=O)[C@H](CCC(N)=O)NC(=O)[C@H](Cc1c[nH]c2ccccc12)NC(=O)[C@H](CC(C)C)NC(=O)[C@H](CCCNC(=N)N)NC(=O)[C@H](Cc1c[nH]cn1)NC(=O)[C@H](CO)NC(=O)[C@H](CC(C)C)NC(=O)[C@H](CC(N)=O)NC(=O)[C@H](CCC(N)=O)NC(=O)[C@@H](NC(=O)[C@H](CCC(N)=O)NC(=O)[C@@H]1CSSC[C@H](NC(=O)CNC(=O)[C@@H](NC(=O)[C@H](CCCNC(=N)N)NC(=O)[C@H](CC(C)C)NC(=O)[C@H](CC(C)C)NC(=O)[C@H](CCC(N)=O)NC(=O)[C@H](C)NC(=O)[C@H](CCC(N)=O)NC(=O)[C@@H](N)[C@@H](C)O)C(C)C)C(=O)N[C@@H](C(C)C)C(=O)N[C@@H](CC(C)C)C(=O)NCC(=O)N[C@@H]([C@@H](C)O)C(=O)N1)C(C)C)C(=O)NCC(=O)N1CCC[C@H]1C(=O)N[C@@H](C)C(=O)NCC(=O)N[C@@H](CCCNC(=N)N)C(=O)N[C@@H](CCC(N)=O)C(=O)N[C@@H](CC(=O)O)C(=O)N[C@@H](CO)C(=O)N[C@@H](C)C(=O)N1CCC[C@H]1C(=O)N[C@H](C(=O)N[C@@H](CC(=O)O)C(=O)N1CCC[C@H]1C(=O)N[C@@H](CO)C(=O)N[C@@H](CO)C(=O)N1CCC[C@H]1C(=O)N[C@@H](Cc1c[nH]cn1)C(=O)N[C@@H](CO)C(=O)N[C@@H](Cc1ccc(O)cc1)C(N)=O)C(C)C` [AM2, adrenomedullin 2]: the Emax at RAMP2-CLR (AM1 receptor) [1] was found to be 44.4 ± 7.1%; on RAMP2-CLR (AM1 receptor) [2], 20.2 ± 2.8%.
As to `CC[C@H](C)[C@H](NC(=O)[C@H](CCC(N)=O)NC(=O)[C@H](Cc1c[nH]cn1)NC(=O)[C@H](C)NC(=O)[C@H](CC(C)C)NC(=O)[C@H](CCCCN)NC(=O)[C@H](CCC(N)=O)NC(=O)[C@@H](NC(=O)[C@@H](NC(=O)[C@@H]1CSSC[C@H](NC(=O)CNC(=O)[C@H](Cc2ccccc2)NC(=O)[C@H](CO)NC(=O)[C@H](CCCNC(=N)N)NC(=O)[C@H](CC(C)C)NC(=O)CNC(=O)[C@H](CCC(N)=O)NC(=O)[C@H](Cc2ccccc2)NC(=O)[C@H](CC(N)=O)NC(=O)[C@H](CC(N)=O)NC(=O)[C@H](CCSC)NC(=O)[C@H](CO)NC(=O)[C@H](CCC(N)=O)NC(=O)[C@H](CCCNC(=N)N)NC(=O)[C@@H](N)Cc2ccc(O)cc2)C(=O)N[C@@H](CCCNC(=N)N)C(=O)N[C@@H](Cc2ccccc2)C(=O)NCC(=O)N[C@@H]([C@@H](C)O)C(=O)N1)[C@@H](C)O)C(C)C)C(=O)N[C@@H](Cc1ccc(O)cc1)C(=O)N[C@@H](CCC(N)=O)C(=O)N[C@@H](Cc1ccccc1)C(=O)N[C@H](C(=O)N[C@@H](CC(=O)O)C(=O)N[C@@H](CCCCN)C(=O)N[C@@H](CC(=O)O)C(=O)N[C@@H](CCCCN)C(=O)N[C@@H](CC(=O)O)C(=O)N[C@@H](CC(N)=O)C(=O)N[C@H](C(=O)N[C@@H](C)C(=O)N1CCC[C@H]1C(=O)N[C@@H](CCCNC(=N)N)C(=O)N[C@@H](CO)C(=O)N[C@@H](CCCCN)C(=O)N[C@H](C(=O)N[C@@H](CO)C(=O)N1CCC[C@H]1C(=O)N[C@@H](CCC(N)=O)C(=O)NCC(=O)N[C@@H](Cc1ccc(O)cc1)C(N)=O)[C@@H](C)CC)C(C)C)[C@@H](C)O` [AM, adrenomedullin], the Emax in test [3] (HEK293, PTX treated (200 ng/ml, 16 h), percentage of maximal cAMP with 100 μM forskolin in presence of PTX, n = 6 (Table 3)) was found to be 72.2 ± 1.7%; in test [3] (HEK293, percentage of maximal cAMP with 100 μM forskolin, HEK-293, 30 min, n = 11 (Table 2)) it was 45.2 ± 3.7%; in test [3] (HEK293, untreated, percentage of maximal cAMP with 100 μM forskolin in presence of PTX, n = 9 (Table 3)) it was 48.1 ± 2.5%; in test [4] it was 37 ± 3.5%.

The values above are taken from article PMC5063977 (The Journal of Biological Chemistry, 2016).
